Measured values from patent US9497966B2, “Pesticidal compositions and related methods” (DOW AGROSCIENCES LLC, priority 2013, dated 2016).

Legend:
[1] = system: Sweetpotato Whitefly-Crawler (Bemisia tabaci) (WF) (BEMITA); assay: Insecticidal test for Sweetpotato Whitefly-Crawler in foliar spray assay on cotton plants; format: in vivo; conditions: 216 h, 200 ppm foliar spray on cotton, graded after 9 days, Abbott-corrected % control, read-out: % Control (or Mortality) rating, WF
Description: Example B: Insecticidal Test for Sweetpotato Whitefly-Crawler (Bemisia tabaci) (WF) (BEMITA) in Foliar Spray Assay
Cotton plants (Gossypium hirsutum) grown in 3-inch pots, with 1 small (4-5 cm) true leaves, were used as test substrate. The plants were infested with 200-400 whitefly eggs 4-5 days prior to chemical application. Four pots with individual plants were used for each treatment. Test compounds (2 mg) were dissolved in 1 mL of acetone solvent, forming stock solutions of 2000 ppm test compound. The stock solutions were diluted 10× with 0.025% Tween 20 in H2O (diluents) to obtain the solution at 200 ppm test compound. A hand-held aspirator-type sprayer was used for spraying a solution to both sides of cotton leaves until runoff. Reference plants (solvent check) were sprayed with the diluent only containing 10% by volume of acetone solvent. Treated plants were held in a holding room for 9 days at approximately 25° C. and ambient relative humidity (RH) prior to grading. Evaluation was conducted by counting the number of live 3-4 nymph stage per plant under a microscope. Percent control was measured by using Abbott's correction formula (W. S. Abbott, “A Method of Computing the Effectiveness of an Insecticide,” J. Econ. Entomol. 18 (1925), pp. 265-267) as follows. Corrected % Control=100*(X−Y)/X • where • X=No. of live nymphs on solvent check plants and • Y=No. of live nymphs on treated plants.
Biological Data for Green Peach Aphid (MYZUPE) and Sweetpotato Whitefly-crawler (WF) (BEMITA)” (See Table Section).

[2] = system: Green Peach Aphid (Myzus persicae) (GPA) (MYZUPE); assay: Bioassay for Green Peach Aphid, foliar spray on infested cabbage seedlings; format: in vivo; conditions: 72 h, 200 ppm foliar spray on cabbage, graded after three days, Abbott-corrected % control, read-out: % Control (or Mortality) rating, GPA
Description: Example A: Bioassays for Green Peach Aphid (Myzus persicae) (GPA) (MYZUPE)
Cabbage seedlings grown in 3-inch pots, with 2-3 small (3-5 cm) true leaves, were used as test substrate. The seedlings were infested with 20-50 GPA (wingless adult and nymph stages) one day prior to chemical application. Four pots with individual seedlings were used for each treatment. Test compounds (2 mg) were dissolved in 2 mL of acetonemethanol (1:1) solvent, forming stock solutions of 1000 ppm test compound. The stock solutions were diluted 5× with 0.025% Tween 20 in H2O to obtain the solution at 200 ppm test compound. A hand-held aspirator-type sprayer was used for spraying a solution to both sides of […] leaves until runoff. Reference plants (solvent check) were sprayed with the diluent only containing 20% by volume of acetonemethanol (1:1) solvent. Treated plants were held in a holding room for three days at approximately 25° C. and ambient relative humidity (RH) prior to grading. Evaluation was conducted by counting the number of live aphids per plant under a microscope. Percent control was measured by using Abbott's correction formula (W. S. Abbott, “A Method of Computing the Effectiveness of an Insecticide,” J. Econ. Entomol. 18 (1925), pp. 265-267) as follows. Corrected % Control=100*(X−Y)/X • where • X=No. of live aphids on solvent check plants and • Y=No. of live aphids on treated plants The results are indicated in the table entitled “TABLE 2. Biological Data for Green Peach Aphid (MYZUPE) and Sweetpotato Whitefly-crawler (WF) (BEMITA)” (See Table Section).

Row | Compound | mortality at 200 ppm [1] | mortality at 200 ppm [2] | melting point
1 | CON=C(CS(=O)(=O)CCC(F)(F)F)C(=O)N(C)c1cn(-c2cccnc2)nc1Cl [Compound P47, N-(3-chloro-1-(pyridin-3-yl)-1H-pyrazol-4-yl)-2-(methoxyimino)-N-methyl-3-((3,3,3-trifluoropropyl)sulfonyl)propanamide] | 80 to 100% | 80 to 100% | –
2 | CON=C(CS)C(=O)N(C)c1cn(-c2cccnc2)nc1Cl [FA2, N-(3-chloro-1-(pyridin-3-yl)-1H-pyrazol-4-yl)-3-mercapto-2-(methoxyimino)-N-methylpropanamide] | – | – | 116 to 121 °C
